According to the supplement of paper PMC11208160:

Assay: recombinant UMI read abundance after kanamycin selection (control-corrected) (log10(CPM+1)); higher = more efficient recombination; extreme values may be limits of the assay; sequences stand for … in AGTGCAGAGAAAATCGGCCAGTTTTCTCTGCCTGCAGTCCGCATGCCGTGGGACCCCTTGGGTTCTAACCTGTTGCCTAGATTTATGCAGCGGACTGCCTTTCTCCCAAAGTGATAAACCGG…AGGTTGGTTTCACT; site = the 11-nt donor
Method in brief: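 In Escherichia coli, a pool of donor and donor-binding-loop pairs, each with a 12-nt UMI, was tested for the IS621 bridge recombinase. Plating was on IPTG (0.07 mM) plus kanamycin, or without selection, in two replicates. Recombinant UMIs were amplified by PCR across the donor–target junction and sequenced, and counts were reported as log10(CPM+1) after averaging and control-derived scaling.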
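Note: IS621 bridge recombinase in Escherichia coli cells against a fixed T5 target plasmid.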

Row | Sequence | recombinant UMI read abundance (log10)
1 | CCAGTTGCATGGACCGGTTTTCCCGGTAATCCGTATTTGAT (site CCAGATGCTAT) | 0.00647
2 | CCAGTTGCATGGACCGGTTTTCCCGGTAATCCGTATTTGAT (site CCAGCTGCTAT) | 0.249
3 | CCAGTTGCATGGACCGGTTTTCCCGGTAATCCGTATTTGAT (site CCAGGTGCTAT) | 0.00995
4 | CCAGTTGCATGGACCGGTTTTCCCGGTAATCCGTATTTGAT (site CCAGTTGCTAT) | 1.42
5 | CCATAAACATGGACCGGTTTTCCCGGTAATCCGTATTTGCT (site CCATAAACTAG) | 1.06
6 | CCATACCCATGGACCGGTTTTCCCGGTAATCCGTATTTGCG (site CCATACCCTCG) | 0.287
7 | CCATACCCATGGACCGGTTTTCCCGGTAATCCGTATTTGTG (site CCATACCCTCA) | 0.00448
8 | CCATCGACATGGACCGGTTTTCCCGGTAATCCGTATTTGTT (site CAATCGACTAA) | 0.00346
9 | CCATCGACATGGACCGGTTTTCCCGGTAATCCGTATTTGTT (site CCATCGACTAA) | 0.266
10 | CCATCGACATGGACCGGTTTTCCCGGTAATCCGTATTTGTT (site CGATCGACTAA) | 0
11 | CCATCGACATGGACCGGTTTTCCCGGTAATCCGTATTTGTT (site CTATCGACTAA) | 0.0452
12 | CCATGAGCATGGACCGGTTTTCCCGGTAATCCGTATTTGAG (site CCATGAGCTCT) | 0.662
13 | CCATGATCATGGACCGGTTTTCCCGGTAATCCGTATTTGAA (site CCATGATCTTT) | 1.02
14 | CCATTATCATGGACCGGTTTTCCCGGTAATCCGTATTTGCT (site CCATTATCTAG) | 1.49
15 | CCATTATCATGGACCGGTTTTCCCGGTAATCCGTATTTGCT (site CGATCATCTAG) | 0
16 | CCATTCTCATGGACCGGTTTTCCCGGTAATCCGTATTTGGG (site CCATTCTCTCC) | 0
17 | CCATTCTCATGGACCGGTTTTCCCGGTAATCCGTATTTGGG (site CCCTTCTCTCC) | 0.00367
18 | CCATTCTCATGGACCGGTTTTCCCGGTAATCCGTATTTGGG (site CCGTTCTCTCC) | 0.00306
19 | CCATTCTCATGGACCGGTTTTCCCGGTAATCCGTATTTGGG (site CCTTTCTCTCC) | 0.0196

Row | Sequence | recombinant UMI read abundance (log10)
20 | CCATTTACATGGACCGGTTTTCCCGGTAATCCGTATTTGCT (site CCATTTACTAG) | 0.933
21 | CCATTTACATGGACCGGTTTTCCCGGTAATCCGTATTTGCT (site CCCTTTACTAG) | 0
22 | CCATTTACATGGACCGGTTTTCCCGGTAATCCGTATTTGCT (site CCGTTTACTAG) | 0
23 | CCATTTACATGGACCGGTTTTCCCGGTAATCCGTATTTGCT (site CCTTTTACTAG) | 0.00937
24 | CCCAACCCATGGACCGGTTTTCCCGGTAATCCGTATTTGTG (site CCCAACCCTCA) | 0.0205
25 | CCCACCGCATGGACCGGTTTTCCCGGTAATCCGTATTTGCC (site CCCACCGCTGG) | 0.815
26 | CCCAGATCATGGACCGGTTTTCCCGGTAATCCGTATTTGGA (site CCCAGATCTTC) | 0.0263
27 | CCCAGGACATGGACCGGTTTTCCCGGTAATCCGTATTTGCG (site CCCAGGACTCG) | 0.893
28 | CCCAGGGCATGGACCGGTTTTCCCGGTAATCCGTATTTGTG (site CCCAGGGCTCA) | 0.475
29 | CCCATATCATGGACCGGTTTTCCCGGTAATCCGTATTTGCC (site CCCATATCTGA) | 0
30 | CCCATATCATGGACCGGTTTTCCCGGTAATCCGTATTTGCC (site CCCATATCTGC) | 0
31 | CCCATATCATGGACCGGTTTTCCCGGTAATCCGTATTTGCC (site CCCATATCTGG) | 0.328
32 | CCCATATCATGGACCGGTTTTCCCGGTAATCCGTATTTGCC (site CCCATATCTGT) | 0.454
33 | CCCATATCATGGACCGGTTTTCCCGGTAATCCGTATTTGTG (site CCCATATCTAA) | 0.00783
34 | CCCATATCATGGACCGGTTTTCCCGGTAATCCGTATTTGTG (site CCCATATCTCA) | 0.356
35 | CCCATATCATGGACCGGTTTTCCCGGTAATCCGTATTTGTG (site CCCATATCTGA) | 0
36 | CCCATATCATGGACCGGTTTTCCCGGTAATCCGTATTTGTG (site CCCATATCTTA) | 0.0103
37 | CCCATGTCATGGACCGGTTTTCCCGGTAATCCGTATTTGTC (site CCCATATCTGA) | 0
